Experimental data as given in patent US10519177B2, “Heterocyclic compounds and uses thereof” (Plexxikon Inc., priority 2013, dated 2019).
pIC50: −log10 of the molar value. Like-named read-outs stand apart in the source and are kept apart here.

Key:
BRD4-BD12 (1-477) = BRD4-BD12 (1-477) (Homo sapiens (Human), UniProt O60885); assay: Alphascreen binding assay BRD4-BD12; conditions: BRD4(1 2) H4; read-out: Biochemical activity (IC50 μM) BRD4(1 2) H4
Summary of the method: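 First, compound was preincubated 1 h at room temperature with the His-tagged BRD4 protein (BD1 44-164 or tandem BD12 1-477) and acetylated H4 peptide. Next, donor and acceptor beads were added at 7.5 μg/ml final. After 30 min, AlphaScreen emission was recorded.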

MV-4-11 cells = assay: Oncology cell growth assay MV-4-11 (CellTiter Glo); type: cell-based; conditions: Homo sapiens, MV4-11, 72 h, read-out: Cell activity (IC50 μM) MV-4-11 3d-Growth
Summary of the method: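 MV-4-11 AML cells (MLL-AF4), 3000 per well, exposed to 8-point 1:3 compound titration from 10 μM top concentration (0.2% DMSO) for 72 h. Viability by CellTiter Glo luminescence, normalized to DMSO controls; pIC50 from four-parameter curve fit.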

bromodomain = assay: at least one of the bromodomain cell assays of Example 57; type: cell-based; conditions: at least one of the bromodomain cell assays described in Example 57; read-out: IC50 in at least one of the bromodomain cell assays

| Structure (SMILES) | IC50 (BRD4-BD12 (1-477)) | IC50 (MV-4-11 cells; MV-4-11, 3d growth) | pIC50 (bromodomain) | IC50 (MV-4-11 cells) |
| --- | --- | --- | --- | --- |
| Cc1noc(C)c1-c1cnc2c(-c3cnn(C)c3)cn(C(c3ccccn3)c3ccccn3)c2c1 [P-0593, 4-[1-[bis(2-pyridyl)methyl]-3-(1-methylpyrazol-4-yl)pyrrolo[3,2-b]pyridin-6-yl]-3,5-dimethyl-isoxazole] | < 1 µM | < 1 µM | > 5.00 |  |
| Cc1noc(C)c1-c1cnc2c(-c3ccc(C(=O)O)nc3)cn(CC3(F)CCC(F)(F)CC3)c2c1 [P-0456, 5-[6-(3,5-dimethylisoxazol-4-yl)-1-[(1,4,4-trifluorocyclohexyl)methyl]pyrrolo[3,2-b]pyridin-3-yl]pyridine-2-carboxylic acid] | < 1 µM | < 1 µM | > 5.00 |  |
| Cc1noc(C)c1-c1cnc2c(-c3cnn(C(F)F)c3)cn(Cc3ncccn3)c2c1 [P-0350, 4-[3-[1-(difluoromethyl)pyrazol-4-yl]-1-(pyrimidin-2-ylmethyl)pyrrolo[3,2-b]pyridin-6-yl]-3,5-dimethyl-isoxazole] | < 1 µM |  | > 5.00 | < 1 µM |
| Cc1noc(C)c1-c1cnc2c(-c3ccc(C(=O)O)c(F)c3F)cn(CC3CCC(F)(F)CC3)c2c1 [P-0416, 4-[1-[(4,4-difluorocyclohexyl)methyl]-6-(3,5-dimethylisoxazol-4-yl)pyrrolo[3,2-b]pyridin-3-yl]-2,3-difluoro-benzoic acid] | < 1 µM |  | > 5.00 | < 1 µM |
| Cc1noc(C)c1-c1cnc2c(-c3ccc(C(N)=O)cc3)cn(CC3CCC(F)(F)CC3)c2c1 [P-0389, 4-[1-[(4,4-difluorocyclohexyl)methyl]-6-(3,5-dimethylisoxazol-4-yl)pyrrolo[3,2-b]pyridin-3-yl]benzamide] | < 1 µM |  | > 5.00 | < 1 µM |
| Cc1noc(C)c1-c1cnc2c(-c3ccc(CC(=O)O)cc3)cn([C@@H](C)c3ccccn3)c2c1 [P-0558, 2-[4-[6-(3,5-dimethylisoxazol-4-yl)-1-[(1S)-1-(2-pyridyl)ethyl]pyrrolo[3,2-b]pyridin-3-yl]phenyl]acetic acid] | < 1 µM | < 1 µM | > 5.00 |  |
| Cc1noc(C)c1-c1cnc2c(c1)c(CC1CCC(F)(F)CC1)cn2-c1ccc(C(=O)O)cn1 [P-0430, 6-[3-[(4,4-difluorocyclohexyl)methyl]-5-(3,5-dimethylisoxazol-4-yl)pyrrolo[2,3-b]pyridin-1-yl]pyridine-3-carboxylic acid] | < 1 µM | < 1 µM | > 5.00 |  |
| COC(=O)c1ccc(-c2cn([C@@H](C)c3ccccc3)c3cc(-c4c(C)noc4C)cnc23)cc1 [P-0559, methyl 4-[6-(3,5-dimethylisoxazol-4-yl)-1-[(1S)-1-phenylethyl]pyrrolo[3,2-b]pyridin-3-yl]benzoate] | < 1 µM | < 1 µM | > 5.00 |  |
| Cc1noc(C)c1-c1cnc2c(-c3ccc(C(=O)O)cc3)cn(CC3CCCCCCC3)c2c1 [P-0579, 4-[1-(cyclooctylmethyl)-6-(3,5-dimethylisoxazol-4-yl)pyrrolo[3,2-b]pyridin-3-yl]benzoic acid] | < 1 µM | < 1 µM | > 5.00 |  |
| Cc1noc(C)c1-c1cnc2c(-c3cccc(NS(C)(=O)=O)c3)cn(CC3(F)CCCCC3)c2c1 [P-0492, N-[3-0[6-(3,5-dimethylisoxazol-4-yl)-1-[(1-fluorocyclohexyl)methyl]pyrrolo[3,2-b]pyridin-3-yl]phenyl]methanesulfonamide] | < 1 µM | < 1 µM | > 5.00 |  |
| [2H]C([2H])(C1CC(F)(F)C1)n1cc(-c2cnn(CCF)c2)c2ncc(-c3c(C)noc3C)cc21 [P-0258, 4-[1-[dideuterio-(3,3-difluorocyclobutyl)methyl]-3-[1-(2-fluoroethyl)pyrazol-4-yl]pyrrolo[3,2-b]pyridin-6-yl]-3,5-dimethyl-isoxazole] | < 1 µM |  | > 5.00 | < 1 µM |
| Cc1noc(C)c1-c1cnc2c(c1)c(CC1CCC(F)(F)CC1)cn2-c1ccc(C(=O)NC2CC2)cn1 [P-0533, N-cyclopropyl-6-[3-[(4,4-difluorocyclohexyl)methyl]-5-(3,5-dimethylisoxazol-4-yl)pyrrolo[2,3-b]pyridin-1-yl]pyridine-3-carboxamide] | < 1 µM | < 1 µM | > 5.00 |  |
| COC(=O)c1ccc(-c2cn([C@H](C)c3ccccn3)c3cc(-c4c(C)noc4C)cnc23)cc1 [P-0508, methyl 4-[6-(3,5-dimethylisoxazol-4-yl)-1-[(1R)-1-(2-pyridyl)ethyl]pyrrolo[3,2-b]pyridin-3-yl]benzoate] | < 1 µM | < 1 µM | > 5.00 |  |
| [2H]C([2H])(C1CCC(F)(F)CC1)n1cc(C(=O)O)c2ncc(-c3c(C)noc3C)cc21 [P-0459, 1-[dideuterio-(4,4-difluorocyclohexyl)methyl]-6-(3,5-dimethylisoxazol-4-yl)pyrrolo[3,2-b]pyridine-3-carboxylic acid] | < 1 µM | 1 to 10 µM | > 5.00 |  |
| Cc1noc(C)c1-c1cnc2c(-c3ccc(C#N)cc3)cn(CC3CCC(F)(F)CC3)c2c1 [P-0434, 4-[1-[(4,4-difluorocyclohexyl)methyl]-6-(3,5-dimethylisoxazol-4-yl)pyrrolo[3,2-b]pyridin-3-yl]benzonitrile] | < 1 µM | < 1 µM | > 5.00 |  |
| Cc1noc(C)c1-c1cnc2c(-c3cnn(CC(F)(F)F)c3)cn([C@@H](C)c3ccc(F)cc3)c2c1 [P-0354, 4-[1-[(1S)-1-(4-fluorophenyl)ethyl]-3-(1-(2,2,2-trifluoroethyl)pyrazol-4-yl]pyrrolo(3,2-b)pyridin-6-yl]-3,5-dimethyl-isoxazole] | < 1 µM |  | > 5.00 | < 1 µM |
| Cc1noc(C)c1-c1cnc2c(-c3ccc(C(=O)O)cc3)cn(C(c3ccccn3)c3ccccn3)c2c1 [P-0576, 4-[1-[bis(2-pyridyl)methyl]-6-(3,5-dimethylisoxazol-4-yl)pyrrolo[3,2-b]pyridin-3-yl]benzoic acid] | < 1 µM | < 1 µM | > 5.00 |  |
| Cc1noc(C)c1-c1cnc2c(-c3cnn(CC(F)(F)F)c3)cn([C@H](C)c3ccc(F)cc3)c2c1 [P-0351, 4-[1-[(1R)-1-(4-fluorophenyl)ethyl]-3-[1-(2,2,2-trifluoroethyl)pyrazol-4-yl]pyrrolo[3,2-b]pyridin-6-yl]-3,5-dimethyl-isoxazole] | < 1 µM |  | > 5.00 | < 1 µM |
| Cc1noc(C)c1-c1cnc2c(-c3ccccc3C(=O)O)cn(CC3(F)CCCCC3)c2c1 [P-0501, 2-[6-(3,5-dimethylisoxazol-4-yl)-1-[(1-fluorocyclohexyl)methyl]pyrrolo[3,2-b]pyridin-3-yl]benzoic acid] | < 1 µM | < 1 µM | > 5.00 |  |
| COCc1ccc(-c2cn(CC3CCCCC3)c3cc(-c4c(C)noc4C)cnc23)cc1 [P-0705, 4-[1-(cyclohexylmethyl)-3-[4-(methoxymethyl)phenyl]pyrrolo[3,2-b]pyridin-6-yl]-3,5-dimethyl-isoxazole] | < 1 µM | < 1 µM | > 5.00 |  |
| Cc1noc(C)c1-c1cnc2c(-c3ccc(F)c(C(=O)O)c3)cn(CC3(F)CCCCC3)c2c1 [P-0467, 5-[6-(3,5-dimethylisoxazol-4-yl)-1-[(1-fluorocyclohexyl)methyl]pyrrolo[3,2-b]pyridin-3-yl]-2-fluoro-benzoic acid] | < 1 µM | < 1 µM | > 5.00 |  |
| Cc1noc(C)c1-c1cnc2c(-c3cnn(C)c3)cn([C@@H](C)c3ccccn3)c2c1 [P-0516, 3,5-dimethyl-4-[3-(1-methylpyrazol-4-yl)-1-[(1S)-1-(2-pyridyl)ethyl]pyrrolo[3,2-b]pyridin-6-yl]isoxazole] | < 1 µM | < 1 µM | > 5.00 |  |
| [2H]C([2H])(C1CCC(F)(F)CC1)n1cc(-c2ccc(O)nc2)c2ncc(-c3c(C)noc3C)cc21 [P-0342, 5-[1-[dideuterio-(4,4-difluorocyclohexyl)methyl]-6-(3,5-dimethylisoxazol-4-yl)pyrrolo[3,2-b]pyridin-3-yl]pyridin-2-ol] | < 1 µM |  | > 5.00 | < 1 µM |
| Cc1noc(C)c1-c1cnc2c(-c3ccc(O)c(F)c3)cn(CC3(F)CCCCC3)c2c1 [P-0500, 4-[6-(3,5-dimethylisoxazol-4-yl)-1-[(1-fluorocyclohexyl)methyl]pyrrolo[3,2-b]pyridin-3-yl]-2-fluoro-phenol] | < 1 µM | < 1 µM | > 5.00 |  |
| Cc1noc(C)c1-c1cnc2c(-c3cnc(C4CC4)nc3)cn(CC3CCC(F)(F)CC3)c2c1 [P-0405, 4-[3-(2-cyclopropylpyrimidin-5-yl)-1-[(4,4-difluorocyclohexyl)methyl]pyrrolo[3,2-b]pyridin-6-yl]-3,5-dimethyl-isoxazole] | < 1 µM |  | > 5.00 | < 1 µM |
| Cc1noc(C)c1-c1cnc2c(-c3ccc(N)nc3)cn(CC3CCC(F)(F)CC3)c2c1 [P-0401, 5-[1-[(4,4-difluorocyclohexyl)methyl]-6-(3,5-dimethylisoxazol-4-yl)pyrrolo[3,2-b]pyridin-3-yl]pyridin-2-amine] | < 1 µM |  | > 5.00 | < 1 µM |
| Cc1noc(C)c1-c1cnc2c(-c3cnn(C(F)F)c3)cn(CC3(F)CCC(O)CC3)c2c1 (stereo not drawn) [P-0261, 4-[[3-[1-(difluoromethyl)pyrazol-4-yl]-6-(3,5-dimethylisoxazol-4-yl)pyrrolo[3,2-b]pyridin-1-yl]methyl]-4-fluoro-cyclohexanol] | < 1 µM |  | > 5.00 | < 1 µM |
